In paper PMC9516332 (Frontiers in Oncology, 2022):
Like-named read-outs stand apart in the source and are kept apart here.

Legend:
[1] = test system: 134 cancer cell lines; test: Cell viability assay (ATPlite, 72 hours), IC50 on cancer cell line panel
[2] = target: T1, panel of 255 wild-type kinases (Homo sapiens, UniProt Q8IW41); test: Kinase panel profiling at 1 µmol/L (MSA or IMAP), percentage inhibition; assay type: biochemical; details: MAPKAPK5; 1 µmol/L single concentration; read-out: %-inhibition, MAPKAPK5
T1 sequence (Q8IW41 1-473): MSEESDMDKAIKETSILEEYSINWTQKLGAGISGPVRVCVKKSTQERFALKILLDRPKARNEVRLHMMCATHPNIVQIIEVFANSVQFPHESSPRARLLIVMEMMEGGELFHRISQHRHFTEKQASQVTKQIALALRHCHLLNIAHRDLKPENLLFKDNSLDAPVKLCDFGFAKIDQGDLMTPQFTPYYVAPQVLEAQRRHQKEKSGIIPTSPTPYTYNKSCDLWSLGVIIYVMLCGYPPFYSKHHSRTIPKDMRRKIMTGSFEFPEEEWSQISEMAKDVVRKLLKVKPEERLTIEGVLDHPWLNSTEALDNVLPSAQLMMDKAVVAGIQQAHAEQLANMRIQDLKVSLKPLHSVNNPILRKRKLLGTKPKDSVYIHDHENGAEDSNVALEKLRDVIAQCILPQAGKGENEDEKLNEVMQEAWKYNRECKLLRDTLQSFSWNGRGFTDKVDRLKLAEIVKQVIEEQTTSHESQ

[3] = target: panel of 255 wild-type kinases (Homo sapiens, UniProt P45983); test: as above; assay type: biochemical; details: kinase JNK1; 1 µmol/L single concentration; read-out: %-inhibition at 1 µmol/L, JNK1

IC50 ([1]; Homo sapiens, MV4-11, read-out: IC50 in cell proliferation assay, MV4-11 cell line (FLT3 ITD)): 0.087 µM
IC50 ([1]; Homo sapiens, MeWo, read-out: IC50 in cell proliferation assay, MeWo cell line): 6.97 µM
IC50 ([1]; Homo sapiens, NCCIT, read-out: IC50 in cell proliferation assay, NCC-IT cell line): 1.66 µM
IC50 ([1]; Homo sapiens, NCI-H82, read-out: IC50 in cell proliferation assay, cell line NCI-H82): 10.9 µM
IC50 ([1]; Homo sapiens, NCI-H460, read-out: IC50 in cell proliferation assay, NCI-H460 cell line): 9.4 µM
IC50 ([1]; Homo sapiens, NCI-H661, read-out: IC50 in cell proliferation assay, NCI-H661 cell line): 2.1 µM
IC50 ([1]; Homo sapiens, NCI-H716, read-out: IC50 in cell proliferation assay, cell line NCI-H716 (FGFR2-COL14A1)): 0.244 µM
IC50 ([1]; Homo sapiens, NCI-H1650, read-out: IC50 in cell proliferation assay, NCI-H1650 cell line (EGFR exon19del)): 2.56 µM
IC50 ([1]; Homo sapiens, NCI-H1975, read-out: IC50 in cell proliferation assay, NCI-H1975 cell line (EGFR p.L858R + p.T790M)): 6.51 µM
IC50 ([1]; Homo sapiens, NCI-H2228, read-out: IC50 in cell proliferation assay, NCI-H2228 cell line (EML4-ALK)): 7.94 µM
IC50 ([1]; Homo sapiens, OVCAR-3, read-out: IC50 in cell proliferation assay, cell line OVCAR-3): 4.11 µM
IC50 ([1]; Homo sapiens, PFSK-1, read-out: IC50 in cell proliferation assay, cell line PFSK-1): 16.7 µM
IC50 ([1]; Homo sapiens, RL95-2, read-out: IC50 in cell proliferation assay, cell line RL95-2 (EGFR p.A289V)): 1.39 µM
IC50 ([1]; Homo sapiens, RPMI-7951, read-out: IC50 in cell proliferation assay, cell line RPMI-7951 (BRAF p.V600E)): 2.79 µM
IC50 ([1]; Homo sapiens, RS4-11, read-out: IC50 in cell proliferation assay, cell line RS4;11): 14.7 µM
IC50 ([1]; Homo sapiens, Rec1, read-out: IC50 in cell proliferation assay, cell line REC-1): 6.58 µM
IC50 ([1]; Homo sapiens, SHP77, read-out: IC50 in cell proliferation assay, cell line SHP-77): > 31.6 µM
IC50 ([1]; Homo sapiens, SK-BR-3, read-out: IC50 in cell proliferation assay, cell line SK-BR-3 (ERBB2 amplification)): 3.88 µM
IC50 ([1]; Homo sapiens, SK-N-AS, read-out: IC50 in cell proliferation assay, cell line SK-N-AS): 4.65 µM
IC50 ([1]; Homo sapiens, SK-N-FI, read-out: IC50 in cell proliferation assay, cell line SK-N-FI): 4.14 µM
IC50 ([1]; Homo sapiens, SK-N-MC, read-out: IC50 in cell proliferation assay, cell line SK-N-MC): 10.4 µM
IC50 ([1]; Homo sapiens, SK-N-SH, read-out: IC50 in cell proliferation assay, cell line SK-N-SH (ALK p.F1174L)): 1.65 µM
IC50 ([1]; Homo sapiens, SNU-5, read-out: IC50 in cell proliferation assay, cell line SNU-5 (MET amplification)): > 31.6 µM
IC50 ([1]; Homo sapiens, SNU-16, read-out: IC50 in cell proliferation assay, cell line SNU-16 (FGFR2 amplification)): 0.135 µM
IC50 ([1]; Homo sapiens, SNU-C2B, read-out: IC50 in cell proliferation assay, cell line SNU-C2B (EGFR p.R165Q)): 19.6 µM
IC50 ([1]; Homo sapiens, SU-DHL-1, read-out: IC50 in cell proliferation assay, cell line SU-DHL-1 (NPM1-ALK)): 11.4 µM
IC50 ([1]; Homo sapiens, SU-DHL-6, read-out: IC50 in cell proliferation assay, cell line SU-DHL-6): 1.93 µM
IC50 ([1]; Homo sapiens, SUP-T1, read-out: IC50 in cell proliferation assay, cell line SUP-T1): 30.7 µM
IC50 ([1]; Homo sapiens, SW48, read-out: IC50 in cell proliferation assay, cell line SW48 (EGFR p.G719S)): 4.57 µM
IC50 ([1]; Homo sapiens, SW480, read-out: IC50 in cell proliferation assay, cell line SW480): 15.4 µM
IC50 ([1]; Homo sapiens, SW626, read-out: IC50 in cell proliferation assay, cell line SW626): 9.63 µM
IC50 ([1]; Homo sapiens, SW780, read-out: IC50 in cell proliferation assay, cell line SW780 (FGFR3-BAIAP2L1)): 1.41 µM
IC50 ([1]; Homo sapiens, SW837, read-out: IC50 in cell proliferation assay, cell line SW837): 12.9 µM
IC50 ([1]; Homo sapiens, SW872, read-out: IC50 in cell proliferation assay, cell line SW872 (BRAF p.V600E)): 5.58 µM
IC50 ([1]; Homo sapiens, SW900, read-out: IC50 in cell proliferation assay, cell line SW900): 5.11 µM
IC50 ([1]; Homo sapiens, SW948, read-out: IC50 in cell proliferation assay, cell line SW948): 15.1 µM
IC50 ([1]; Homo sapiens, SW982, read-out: IC50 in cell proliferation assay, cell line SW982 (BRAF p.V600E)): 1.61 µM
IC50 ([1]; Homo sapiens, SW-620, read-out: IC50 in cell proliferation assay, cell line SW620): 2.46 µM
IC50 ([1]; Homo sapiens, T98G, read-out: IC50 in cell proliferation assay, cell line T98G): 0.785 µM
IC50 ([1]; Homo sapiens, TCC-SUP, read-out: IC50 in cell proliferation assay, cell line TCCSUP): 5.55 µM
IC50 ([1]; Homo sapiens, THP-1, read-out: IC50 in cell proliferation assay, cell line THP-1): > 31.6 µM
IC50 ([1]; Homo sapiens, U2OS, read-out: IC50 in cell proliferation assay, cell line U2OS): 2.67 µM
IC50 ([1]; Homo sapiens, U-87 MG, read-out: IC50 in cell proliferation assay, cell line U-87MG ATCC): 20.8 µM
IC50 ([1]; Homo sapiens, U-118-MG, read-out: IC50 in cell proliferation assay, cell line U-118MG): 2.78 µM
IC50 ([1]; Homo sapiens, UMUC3, read-out: IC50 in cell proliferation assay, cell line UM-UC-3): 2.83 µM
IC50 ([1]; Hs766T, read-out: IC50 in cell proliferation assay, Hs 766T cell line): 3.3 µM
IC50 ([1]; L-82, read-out: IC50 in cell proliferation assay, L-82 cell line (NPM1-ALK)): 11.1 µM
IC50 ([1]; Rh30, read-out: IC50 in cell proliferation assay, cell line Rh30): 6.62 µM
IC50 ([1]; read-out: IC50 in cell proliferation assay, 11-18 cell line (EGFR p.L858R)): 2.07 µM
IC50 ([1]; read-out: IC50 in cell proliferation assay, Hs 852.T cell line): 10.8 µM
IC50 ([1]; read-out: IC50 in cell proliferation assay, JAR cell line): 5.16 µM
IC50 ([1]; read-out: IC50 in cell proliferation assay, cell line 5637): 4.55 µM
IC50 ([1]; read-out: IC50 in cell proliferation assay, cell line A-388): 2.11 µM
IC50 ([1]; read-out: IC50 in cell proliferation assay, cell line DB): 13.3 µM
IC50 ([1]; read-out: IC50 in cell proliferation assay, cell line DEL (NPM1-ALK)): 16.1 µM
IC50 ([1]; read-out: IC50 in cell proliferation assay, cell line ES-2 (BRAF p.V600E)): 7.67 µM
IC50 ([1]; read-out: IC50 in cell proliferation assay, cell line PA-1): 4.5 µM
IC50 ([1]; read-out: IC50 in cell proliferation assay, cell line PC-3): 6.08 µM
IC50 ([1]; read-out: IC50 in cell proliferation assay, cell line RD): 14.6 µM
IC50 ([1]; read-out: IC50 in cell proliferation assay, cell line RKO (BRAF p.V600E)): 11.3 µM
IC50 ([1]; read-out: IC50 in cell proliferation assay, cell line RL): 5.67 µM
IC50 ([1]; read-out: IC50 in cell proliferation assay, cell line RT-4 (FGFR3-TACC3)): 0.453 µM
IC50 ([1]; read-out: IC50 in cell proliferation assay, cell line SR (NPM1-ALK)): 8.14 µM
IC50 ([1]; read-out: IC50 in cell proliferation assay, cell line T24): 6.55 µM
IC50 ([1]; read-out: IC50 in cell proliferation assay, cell line TT (RET p.C634W)): 0.055 µM
IC50 ([1]; read-out: IC50 in cell proliferation assay, cell line VA-ES-BJ): 7.77 µM
inhibition at 1 µM [2]: -3.49%
inhibition at 1 µM [3]: -5%
Structure (SMILES): CO[C@]1(C(=O)N[C@@H](C)c2ccc(-n3cc(F)cn3)nc2)CC[C@H](c2nc(C)cc(Nc3cc(C)[nH]n3)n2)CC1 [pralsetinib]
